Test results published in PubChem BioAssay AID651592 (Sanford-Burnham Center for Chemical Genomics, 2012).
pIC50: −log10 of the molar value.

Columns and labels:
IL8 = assay: inhibitors of NFkB activation in CF airway cells, SAR follow-up, KKLEB cells, panel, IL8 HTRF, NFkB-GFP (AID 651592); details: PAF/TNFa-induced NFkB-GFP / IL8 HTRF, mean of runs, mean IC50 across panel replicates;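 also: immortalized cystic fibrosis airway epithelial KKLEB cells with an NF-kB GFP reporter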
[1] = as above; details: PAF/TNFa-induced NFkB-GFP / IL8 HTRF, CF-PAF assay
[2] = target: Interleukin-8 (Homo sapiens) (UniProt P10145); assay: as above; details: PAF/TNFa-induced NFkB-GFP / IL8 HTRF
Chain of Interleukin-8 (Homo sapiens) (P10145 whole entry, looked up): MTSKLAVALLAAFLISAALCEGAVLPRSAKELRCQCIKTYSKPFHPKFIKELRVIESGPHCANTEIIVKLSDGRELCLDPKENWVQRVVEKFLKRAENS

[3] = mean of runs, mean IC50 across panel replicates

SMILES	pIC50 (IL8; PAF-induced)	pIC50 (IL8; TNFa-induced)	pIC50 [1, 3]	pIC50 ([1]; run 1)	pIC50 ([1]; run 2)	pIC50 ([1]; run 3)	pIC50 ([1]; run 4)	pIC50 ([1]; run 5)	pIC50 ([1]; run 6)	pIC50 ([2]; IL8, PAF-induced, run 1)	pIC50 ([2]; IL8, PAF-induced, run 2)	pIC50 ([2]; IL8, PAF-induced, run 3)	pIC50 ([2]; IL8, PAF-induced, run 4)	pIC50 ([2]; IL8, PAF-induced, run 5)	pIC50 ([2]; IL8, PAF-induced, run 6)	pIC50 ([2]; IL8, TNFa-induced, run 1)	pIC50 ([2]; IL8, TNFa-induced, run 2)	pIC50 ([2]; IL8, TNFa-induced, run 3)	pIC50 ([2]; IL8, TNFa-induced, run 4)	pIC50 ([2]; IL8, TNFa-induced, run 5)	further results
O=C(Nc1ccc(N2CCN(C(=O)c3ccc(F)cc3)CC2)cc1)c1cccnc1	< 4.18	< 4.18	4.38	4.42	4.40	4.33	< 4.18	< 4.18	< 4.18	< 4.18	< 4.18	< 4.18	< 4.18	< 4.18	< 4.18	< 4.18	< 4.18	< 4.18	< 4.18	< 4.18	pIC50 ([2]; IL8, TNFa-induced, run 6): < 4.18
O=C(Nc1ccc(N2CCN(C(=O)c3ccccc3F)CC2)cc1)c1ccccc1	< 4.18	4.25	4.43	5.08	5.03	5.03	< 4.18	< 4.18	< 4.18	< 4.18	< 4.18	< 4.18	< 4.18	< 4.18	< 4.18	< 4.18	< 4.18	5.37	< 4.18	< 4.18	pIC50 ([2]; IL8, TNFa-induced, run 6): < 4.18
O=C(Nc1ccc(N2CCN(C(=O)c3ccc(F)cc3)CC2)cc1)c1ccccc1	< 4.18	< 4.18	< 4.18	< 4.18	< 4.18	< 4.18	< 4.18	< 4.18	< 4.18	< 4.18	< 4.18	< 4.18	< 4.18	< 4.18	< 4.18	< 4.18	< 4.18	< 4.18	< 4.18	< 4.18	pIC50 ([2]; IL8, TNFa-induced, run 6): < 4.18
O=C(Nc1ccc(N2CCN(C(=O)c3ccccc3F)CC2)cc1)c1ccccn1	< 4.18	< 4.18	4.34	4.49	4.40	4.19	< 4.18	< 4.18	< 4.18	< 4.18	< 4.18	< 4.18	< 4.18	< 4.18	< 4.18	< 4.18	< 4.18	< 4.18	< 4.18	< 4.18	pIC50 ([2]; IL8, TNFa-induced, run 6): < 4.18
O=C(Nc1ccc(N2CCN(C(=O)c3ccc(F)cc3)CC2)cc1)c1cc(Br)cc(Br)c1	< 4.18	< 4.18	< 4.18	< 4.18	< 4.18	< 4.18	< 4.18	< 4.18	< 4.18	< 4.18	< 4.18	< 4.18	< 4.18	< 4.18	< 4.18	< 4.18	< 4.18	< 4.18	< 4.18	< 4.18	pIC50 ([2]; IL8, TNFa-induced, run 6): < 4.18
O=C(Nc1ccc(N2CCN(C(=O)c3ccccc3)CC2)cc1)c1cccc(Br)c1	4.32	4.32	4.69	4.83	4.78	4.72	4.68	4.64	4.54	< 4.18	5.35	4.75	< 4.18	< 4.18	< 4.18	< 4.18	< 4.18	4.83	< 4.18	< 4.18	pIC50 ([2]; IL8, TNFa-induced, run 6): 5.08
Cc1ccc(CNCc2cc3c(C(C)(C)C)nn(-c4ccccc4)c3[nH]c2=O)cc1	4.84	< 4.18	4.22	< 4.18	< 4.18	< 4.18	< 4.18	< 4.18	4.52	5.10	4.89	4.84	4.78	4.77	4.73	< 4.18	< 4.18	< 4.18	< 4.18	< 4.18	pIC50 ([2]; IL8, TNFa-induced, run 6): < 4.18
